Assay results from US5130119A, “Method of using fluorosubstituted benzene derivatives in F-NMR imaging” (Schering Aktiengesellschaft, priority 1988, dated 1992).
Several values for one entry are separate records, joined by “and”; a condition that tells them apart may be missing. Equal entries are not always repeated.

Experiments:
[1] = system: rat (whole animal; bladder area); test: in vivo 19F NMR spectroscopic pH determination; design: species or system female rats of the Wistar-Han-Schering strain (SPF); settings: 0.5 mmol/kg i.v.
Method: Performance of in vivo ^19 F NMR spectroscopic pH determinations with 5-[N-(4-fluoro-2-trifluoromethylphenyl)sulfamoyl]-isophthalic acid (Example 13)
An aqueous solution of the fluorocompound is produced with a concentration of 0.4 mol/1. The pH of the aqueous solution is adjusted with NaOH to 7.2.
The NMR spectra are measured with an animal experimental nuclear spin tomograph (General Electric), which operates with a field strength of 2 tesla (corresponds to an RF resonance frequency of 80.5 MHz). The signals can be picked up by the whole-body coil (animal size) or surface coils.
The experiments are performed with female rats of the Wistar-Han-Schering strain (SPF) with a body weight of 200 g. The animal is anesthetized by an intramuscular injection of Rompun/Ketavet (1:1, 1 ml/kg of body weight). Then a butterfly needle is placed in the animal in one of the tail veins. The animal is placed in a whole-body coil and the latter is tuned to the fluororesonance frequency. The spectrum of the entire animal is developed with this coil, i.e., no volume-selective spectroscopy is performed.
The fluorinated compound is applied intravenously within 30 seconds in a dose of 0.5 mmol/kg and an F spectrum is registered within 4 minutes.
After measurement of the total animal, the animal was removed from the coil and positioned on a surface coil so that the bladder area was picked up by the coil. […] The intense signals originate from the fluorocompound in the bladder. The chemical shift in the aromatic range is identical with the deep-field signal of the aromatic range in FIG. 2.

[2] = intravenous acute tolerability (LD50) on the mouse; settings: in vivo
Method: Thus, for example, an intravenous acute tolerability (LD50) of 4 mmol/kg of body weight was determined on the mouse for 5-[N-(4-fluoro-2-trifluoromethylphenyl)sulfamoyl)-isophthalic acid (Example 13).

[3] = system: kidney, bladder and ureter; test: 19F imaging; format: in vivo, rat
Text: FIG. 4 relates to Example 50 and is the projection ^19 F image of the kidney, bladder, and ureters of a rat administered 0.75 mmol/kg of 5-[N-4-fluoro-2-trifluoromethylphenyl)sulfamoyl] isophthalic acid and 0.2 mmol/kg GdDTPA.
Production of the solution of the fluorinated substance as well as preparation of the animal take place as in taking the ^19 F NMR spectra.
The test animal is placed in the measuring coil and the fluorinated compound is applied in a dose of 0.75 mmol/kg of body weight by the tail vein in 1 minute. Then an intravenous application takes place, also by needle in the tail vein, of GdDTPA in a dose of 0.2 mmol/kg. Making of the image takes place with a projection spin echo sequence and the parameters: TR=28 msec (repetition rate), TE=4 msec (echo time), NEX=256 (number of averagings); the total measuring time is 15 minutes.

Question: With `O=C(O)c1cc(C(=O)O)cc(S(=O)(=O)Nc2ccc(F)cc2C(F)(F)F)c1` [Example 13, 5-[N-(4-fluoro-2-trifluoromethylphenyl)sulfamoyl]-isophthalic acid] as the compound, how does the “pH calculated from the chemical shifts (2 environments)” value ([1]; 5 minutes after application, whole rat, 2 tesla, CF3 reference signal) read?
Answer: 6.5 and 7.7

Question: What about the “19F signal from the alkaline range” value ([1]; 50 minutes after application) of the same compound?
Answer: almost disappeared

Question: What about the “19F signal in the acid range” value ([1]; 50 minutes after application) of the same compound?
Answer: split into several signals

Question: What about the “location of lowest pH in the animal” value ([1]; bladder area, surface coil, 20 minutes measuring time) of the same compound?
Answer: the lowest (most acid) pH is in the bladder

Question: What about the excretion ([1]; bladder area, surface coil, 70 minutes after application, 20 minutes measuring time) of the same compound?
Answer: renally excreted

Question: And the “distribution at the beginning of the experiment” value ([1]; whole rat)?
Answer: found only in the blood

Question: And the “distribution 50 minutes after application” value ([1]; whole rat, 50 minutes)?
Answer: distributed extravascularly

Question: What about the LD50 [2] of the same compound?
Answer: 4000 µmol/kg

Question: What about the “excretion (imaging)” value ([3]; 0.75 mmol/kg i.v. plus GdDTPA 0.2 mmol/kg) of the same compound?
Answer: renally excreted

Question: What about the 19F image ([3]; 0.75 mmol/kg i.v. plus GdDTPA 0.2 mmol/kg i.v., projection spin echo, 15 minutes) of the same compound?
Answer: shows the kidney, bladder and ureter

Question: And the “F concentration in kidney, bladder and ureter” value ([3]; 0.75 mmol/kg i.v., reabsorption of water in these areas)?
Answer: high F concentration
